{"source": "patent US12552783B2", "about": "“Modulators of proteolysis and associated methods of use” (Arvinas Operations, Inc., priority 2018, dated 2026)", "type_in_all_cases": "cell-based", "key": {"KRas [1]": {"target": "T1, KRas (Homo sapiens, UniProt P01116, G12C)", "assay": "KRas degradation in SW1573 cells by Western blot, normalized to GAPDH (data of Table 14)", "summary_of_the_method": "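SW1573 cells, homozygous for the KRas G12C mutation and maintained in DMEM with 10% FBS and 1% penicillin-streptomycin, were seeded in 12-well plates, allowed to attach overnight at 37° C. under 5% CO2, then serum-starved for 24 hours before compound exposure. KRas levels were measured by Western blot, normalized to GAPDH, and compared with DMSO controls to give percent degradation, DC50 and Dmax.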"}, "KRas^G12C [2]": {"target": "T2, KRas^G12C (Homo sapiens, UniProt P01116, G12C)", "T2 construct": "endogenous in cells", "assay": "Western blot mobility shift of KRas after treating cells with bifunctional compound (FIGS. 2A and 2B)", "conditions": "for KRas degrader activity (representative Western blot): FIG. 2A / FIG. 2B; for covalent modification of KRas seen by gel shift: upper band is KRas and the bifunctional compound, lower band is KRas alone", "source_text": "FIGS. 2A and 2B show the result of treating cells with either a bifunctional compound alone or a bifunctional compound and an E3 ubiquitin ligase inhibitor, and then detecting the KRas protein on the gel. The mobility shift of KRas detection on the gel illustrates that the bifunctional compounds covalently modify KRas. The upper band is KRas and the bifunctional compound, while the lower band is KRas alone."}, "KRas^G12C [3]": {"target": "T2, KRas^G12C", "assay": "Western blot of KRas G12C degradation and gel shift (FIGS. 2A and 2B)", "conditions": "for covalent modification of KRas^G12C, as seen by the gel shift: Western blot gel shift, FIGS. 2A and 2B; for degrader potency shown by Western blot: FIG. 2A / FIG. 2B"}, "KRas [4]": {"target": "T1, KRas", "assay": "KRas degradation in NCI-H2030 cells by Western blot, normalized to GAPDH (data of Table 14)", "design": "host or cells: NCI-H2030", "summary_of_the_method": "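Both lines are homozygous for KRas G12C and were serum-starved for 24 h before treatment with compound at 0.3, 1 or 3 μM in 0.1% DMSO: 24 h for VHL-based compounds, 72 h for the rest. Western blot of 10 μg lysate gave KRas signal normalized to GAPDH, and percent degradation was expressed relative to the DMSO control.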"}}, "data": [{"smiles": "C=CC(=O)N1CCN(c2nc(O[C@H](C)CN3CCN(CC4CCN(c5ccc6c(c5)C(=O)N(C5CCC(=O)NC5=O)C6=O)CC4)CC3)nc3c(F)c(-c4cc(O)cc5ccccc45)c(Cl)cc23)CC1", "note": "(stereo partly drawn) [compound 432, 5-(4-((4-((2R)-2-((4-(4-acryloylpiperazin-1-yl)-6-chloro-8-fluoro-7-(3-hydroxynaphthalen-1-yl)quinazolin-2-yl)oxy)propyl)piperazin-1-yl)methyl)piperidin-1-yl)-2-(2,6-dioxopiperidin-3-yl)isoindoline-1,3-dione]", "values": [{"measurement": "Percent Degradation at Indicated Concentration (μM)", "setting": "KRas [1]; SW1573 cells, 0.1 μM", "value": "C (Percent Degradation: C ≤ 35)"}, {"measurement": "Percent Degradation at Indicated Concentration (μM)", "setting": "KRas [1]; SW1573 cells, 0.3 μM", "value": "C (Percent Degradation: C ≤ 35)"}, {"measurement": "Percent Degradation at Indicated Concentration (μM)", "setting": "KRas [1]; SW1573 cells, 1 μM", "value": "C (Percent Degradation: C ≤ 35)"}, {"measurement": "KRas degrader activity (representative Western blot)", "setting": "KRas^G12C [2]", "value": "less active degrader"}, {"measurement": "covalent modification of KRas seen by gel shift", "setting": "KRas^G12C [2]", "value": "covalently modify KRas^G12C"}, {"measurement": "covalent modification of KRas^G12C, as seen by the gel shift", "setting": "KRas^G12C [3]", "value": "covalently modify KRas^G12C"}, {"measurement": "degrader potency shown by Western blot", "setting": "KRas^G12C [3]", "value": "less potent degrader"}]}, {"smiles": "C=CC(=O)N1CCN(c2nc(O[C@H](C)CN3CCC(OCCOCCOCC(=O)N[C@H](C(=O)N4C[C@H](O)C[C@H]4C(=O)N[C@@H](C)c4ccc(-c5scnc5C)cc4)C(C)(C)C)CC3)nc3c(F)c(-c4cc(O)cc5ccccc45)c(Cl)cc23)CC1", "note": "[compound 399, (2S,4R)-1-((2S)-2-(2-(2-(2-((1-((2R)-2-((4-(4-acryloylpiperazin-1-yl)-6-chloro-8-fluoro-7-(3-hydroxynaphthalen-1-yl)quinazolin-2-yl)oxy)propyl)piperidin-4-yl)oxy)ethoxy)ethoxy)acetamido)-3,3-dimethylbutanoyl)-4-hydroxy-N-((S)-1-(4-(4-methylthiazol-5-yl)phenyl)ethyl)pyrrolidine-2-carboxamide]", "values": [{"measurement": "DC50", "setting": "KRas [1]; SW1573", "value": "< 0.1", "unit": "µM"}, {"measurement": "Dmax", "setting": "KRas [1]; SW1573", "value": "35 to 70", "unit": "%"}, {"measurement": "Percent Degradation at Indicated Concentration (μM)", "setting": "KRas [1]; SW1573, 0.03 μM", "value": "C (Percent Degradation: C ≤ 35)"}, {"measurement": "Percent Degradation at Indicated Concentration (μM)", "setting": "KRas [1]; SW1573, 0.1 μM", "value": "B (35 < B < 70)"}, {"measurement": "Percent Degradation at Indicated Concentration (μM)", "setting": "KRas [1]; SW1573, 0.3 μM", "value": "B (35 < B < 70)"}, {"measurement": "Percent Degradation at Indicated Concentration (μM)", "setting": "KRas [1]; SW1573, 1 μM", "value": "B (35 < B < 70)"}, {"measurement": "Percent Degradation at Indicated Concentration (μM)", "setting": "KRas [1]; SW1573, 3 μM", "value": "B (35 < B < 70)"}, {"measurement": "Percent Degradation at Indicated Concentration (μM)", "setting": "KRas [1]; SW1573, 10 μM", "value": "C (Percent Degradation: C ≤ 35)"}, {"measurement": "DC50", "setting": "KRas [4]; H2030", "value": "≥ 1", "unit": "µM"}, {"measurement": "Percent Degradation at Indicated Concentration (μM)", "setting": "KRas [4]; H2030, 0.03 μM", "value": "C (Percent Degradation: C ≤ 35)"}, {"measurement": "Percent Degradation at Indicated Concentration (μM)", "setting": "KRas [4]; H2030, 0.1 μM", "value": "C (Percent Degradation: C ≤ 35)"}, {"measurement": "Percent Degradation at Indicated Concentration (μM)", "setting": "KRas [4]; H2030, 0.3 μM", "value": "C (Percent Degradation: C ≤ 35)"}, {"measurement": "Percent Degradation at Indicated Concentration (μM)", "setting": "KRas [4]; H2030, 1 μM", "value": "C (Percent Degradation: C ≤ 35)"}, {"measurement": "Percent Degradation at Indicated Concentration (μM)", "setting": "KRas [4]; H2030, 3 μM", "value": "B (35 < B < 70)"}, {"measurement": "Percent Degradation at Indicated Concentration (μM)", "setting": "KRas [4]; H2030, 10 μM", "value": "C (Percent Degradation: C ≤ 35)"}, {"measurement": "Dmax", "setting": "KRas [4]; NCI-H2030", "value": "35 to 70", "unit": "%"}, {"measurement": "KRas degrader activity (representative Western blot)", "setting": "KRas^G12C [2]", "value": "potent degrader"}, {"measurement": "covalent modification of KRas seen by gel shift", "setting": "KRas^G12C [2]", "value": "covalently modify KRas^G12C"}, {"measurement": "covalent modification of KRas^G12C, as seen by the gel shift", "setting": "KRas^G12C [3]", "value": "covalently modify KRas^G12C"}, {"measurement": "degrader potency shown by Western blot", "setting": "KRas^G12C [3]", "value": "potent degrader"}]}]}
